Data published in patent US8470379B2, “Use of a potent product extracted from rhizomes of zingiber officinale in treating a disease associated with Helicobacter pylori” (Medical and Pharmaceutical Industry Technology and …, priority 2007, dated 2013).

What was measured:
[1] = test system: Helicobacter pylori (ATCC 43504); assay: Anti-microbial test: MIC by agar dilution method; assay type: cell-based; settings: ATCC43504, Columbia agar + 7% rabbit blood, 35° C., 72 hours, microaerophilic, highest concentration 300 μg/ml, read-out: Minimum inhibitory concentration (MIC)
Procedure: Minimum inhibitory concentration (MIC) of sample on Helicobacter pylori was determined by the agar dilution method [Malanosk G. J. et al. Effect of pH variation on the susceptibility of Helicobacter pylori to three marcolide antimicrobial agents and temafloxacin. Eur. J. Clin. Microbial Infect Dis. 12: pp. 131-133, 1993.]. The test substance was dissolved and serially diluted in DMSO to desired stock concentrations. For each concentration tested, a 0.01 ml aliquot is added to a 48-well plate containing 0.99 ml of Columbia agar base (Oxoid, England) supplemented 7% defibrinated rabbit blood. The inoculum of Helicobacter pylori (ATCC 43504) is prepared by suspending in brain heart infusion broth to a density of 5×10^5 CFU/ml. The final maximal concentration of DMSO is 1% and the initial test substance concentration is 300 μg/ml. The plates are incubated at 35° C. for 72 hours in the microaerophilic condition (Mixed gas N2 85%, CO2 10% and O2 5%) and then visually examined and scored positive (+) for inhibition of the colonies growth or negative (−) for no effect upon growth colonies. Vehicle-control and gentamicin are used as blank and positive controls, respectively. Each concentration is evaluated in duplicate.

[2] = test system: Helicobacter pylori-induced gastric ulcer; assay: Helicobacter pylori-induced gastric ulcer in mice; assay type: in vivo, male CD-1 (Crl.) derived mice; settings: 35 mg/kg orally for 7 days
Procedure: Effects of samples on Helicobacter pylori-induced gastric ulcer were evaluated as described previously [Marchetti, M., Arico, B., Burroni, D., Figura, N., Rappuoli, R. and Ghiara, P. Development of a mouse model of Helicobacter pylori infection that mimics human disease. Science 267: 1655-1658, 1995.]. Groups of 5 male CD-1 (Crl.) derived mice weighing 24±2 g were fasted for 18 hours prior to intragastric inoculation of clinical isolated Helicobacter pylori in suspension at 3.2×10^9 colony formation units/0.4 ml/mouse. Test samples and vehicle (2% CMC, 10 ml/kg) were each administered orally to test animals, starting one hour after the Helicobacter pylori inoculation, dosing twice daily (10:00 am and 4:00 pm) for 7 consecutive days. Omeprazole (1 mg/kg) and clarithromycin (10 mg/kg), in combination, were used for the positive control agents and administered orally to test animal once daily for 7 consecutive days under the same schedule. […] Gastric ulceration scored at four levels according to the degree of hemorrhage and severity of ulcerative lesions: • 0=normal appearance • 1=mild red spots • 2=moderate red spots and/or hemorrhage spots • 3=marked hemorrhage spots
Percentage inhibition on Helicobacter pylori-induced gastric ulcer was calculated as follows: (Scores of vehicle group−Scores of test group)/(Scores of vehicle group)×100% The results are shown in Table 3.

MIC [1] | Compound | Percentage inhibition on Helicobacter pylori-induced gastric ulcer [2]
10 µg/mL | CCCCC[C@H](O)CC(=O)CCc1ccc(O)c(OC)c1 [Sample 6-Gingerol, 6-Gingerol] | 25%
10 µg/mL | CCCCC/C=C/C(=O)CCc1ccc(O)c(OC)c1 [Shogaol] | 
